Measured values: PubChem BioAssay AID2305 (GlaxoSmithKline (GSK), 2010)

Tested on: P. falciparum 3D7 growth, pLDH absorbance
Assay: blood-stage malaria parasite growth potency – strain 3D7, dose response (AID 2305)

| Structure (SMILES) | IC50 [nM] |
| --- | --- |
| CC1(C)N=C(N)N=C(N)N1OCCCOc1cccc(C(=O)O)c1 | 40 |
| CCN(CC)CCN1C(=O)c2oc3ccc(Cl)cc3c(=O)c2C1c1ccc(SC)cc1 (centres undefined) | 1060 |
| CCc1cccc2sc(N3CCN(C(=O)c4ccc([N+](=O)[O-])o4)CC3)nc12 | 770 |
| O=C(NC1CCCCC1)N(Cc1cccc(-c2cccc(CNC3CCCC3)c2)c1)C1CCN(Cc2ccccc2)CC1 | 740 |
| Cc1cccc(Nc2nc(N)c3ccccc3n2)c1 | 570 |
| CN(C)CCCN1CCN(C(=O)c2cccc(-c3noc(C(F)(F)F)n3)c2)CC1 | 350 |
| CCN(CCCN1CCCCC1)c1cc(C)nc(Nc2ccc(Cl)cc2C)n1 | 730 |
| CCCCCc1cnc2nc(N)nc(N)c2c1 | 1230 |
| CN(C)c1ccc(-c2csc(C(=O)NC3CCN(Cc4ccc(C(C)(C)C)cc4)C3)c2)cc1 (centres undefined) | 950 |
| Nc1n[nH]c(-c2ccccc2Nc2ccnc3cc(-c4nccs4)ccc23)n1 | 1120 |
| CS(=O)(=O)c1ccc(CCNCc2ccc(-c3ccc(CN(C(=O)C4CCCC4)C4CCN(Cc5ccccc5)CC4)cc3)nc2)cc1 | 830 |
| Cc1cc2c(cc1Cl)N(C(=O)Nc1cc(F)cc(-c3cncnc3)c1)CC2 | 380 |
| CCC1CN2CCc3c([nH]c4ccccc34)C2CC1CC1=NCCc2c1[nH]c1ccccc21 (centres undefined) | 740 |
| CCOC(=O)C(=O)N1c2ccc(OCC)cc2-c2c(ssc2=S)C1(C)C | 220 |
| O=C(NCCNc1ccnc2cc(Cl)ccc12)c1ccccc1F | 660 |
| OCCOCn1cnc2cnc(N[C@H]3OC[C@H](O)[C@@H](O)[C@@H]3O)nc21 | 1640 |
| CN1CCc2ccc(NC(=O)Nc3cccc(C(=O)c4ccccc4)c3)cc2C1 | 920 |
| CN1CCN(Cc2cccc(-c3ccc4c(Nc5ccc(F)cc5Cl)ccnc4c3)c2)CC1 | 160 |
| O=C(Cn1c(CCc2cccc(F)c2F)nc(=O)c2ccccc21)N(Cc1ccc(-c2ccc(C(F)(F)F)cc2)cc1)C1CCN(C2CCSCC2)CC1 | 860 |
| O=[N+]([O-])c1cccc(CNC2CCN(Cc3ccc4ccccc4c3)CC2)c1 | 760 |
| O=C(Nc1cccc(CN2CCCN(Cc3ccc4c(c3)OCO4)CC2)c1)c1ccc2ccccc2c1 | 1050 |
| Cc1ccc(C(O)CNc2ccnc(Nc3cccc(-c4csc(C)n4)c3)n2)cc1 (centres undefined) | 830 |
| CCNc1cc(C(=O)N[C@@H](Cc2ccccc2)[C@H](O)CN[C@@H](C)c2cccc(OC)c2)cc(N2CCCC2=O)c1 | 770 |
| O=C(Nc1ccccc1)NC1CCN(CCC2(c3ccc(Cl)c(Cl)c3)COCN(C(=O)c3ccccc3)C2)C1 (centres undefined) | 880 |
| Cc1cccc(C(=O)N2CCN(Cc3cccc(NC(=O)c4cccs4)c3)CC2)c1 | 220 |

| Structure (SMILES) | IC50 [nM] |
| --- | --- |
| Cc1cc(=O)[nH]c(-n2nc(C)cc2NC(=O)C2(c3ccc(Cl)cc3)CCCC2)n1 | 290 |
| Brc1ccc(C=NNc2nc3ccccc3[nH]2)cc1 | 700 |
| Nc1ccnc2ccc(OCCCCCCc3ccccc3)cc12 | 520 |
| O=C(c1ccc(-c2ccc(-c3nc4ccccc4[nH]3)s2)cc1)N1CCCCC1CN1CCC(O)C1 (centres undefined) | 1050 |
| COc1cc2nc(N3CCC(CNC(=O)c4cc(Br)c(Br)s4)CC3)nc(N)c2cc1OC | 710 |
| Cc1ccc2nc(C)cc(NN=Cc3ccc([N+](=O)[O-])o3)c2c1 | 750 |
| CC(C)(C)Nc1nc(Nc2cccc([N+](=O)[O-])c2)nc(-n2ccnc2)n1 | 810 |
| COC(=O)c1ccc(NC(=O)c2ccc(CCN3CCC(c4nc(COCC(F)(F)F)c(-c5ccc(F)cc5)o4)CC3)cc2)cc1 | 1040 |
| Cc1nc(C)c(-c2ccc(Oc3ccc(OC(F)(F)F)cc3)cc2)c(OC(=O)N(CCNC(C)C)C(C)C)c1Br | 170 |
| CC(C)CNc1c2c(nc3cnn(-c4c5c(nc6cn[nH]c46)CCCC5)c13)CCCC2 | 790 |
| CCc1c(CCNC/C=C/C=C/CNCCc2ccc(OC)c(OC)c2CC)ccc(OC)c1OC | 970 |
| CCCCCCCCNc1c2ccc(Cl)cc2nc2ccc(OC)cc12 | 810 |
| Cc1ccc(C2CCN(CCCCNC(=O)c3ccc(-c4ccc(C#N)cc4)cc3)CC2)c(O)c1 | 290 |
| COc1cc(CCNC(=O)Cc2ccc3ccccc3c2)ccc1OCc1ccccc1 | 1020 |
| CCOC(=O)c1cc(C(=O)OC)c2ccccn12 | 220 |
| O=C(C=Cc1cccs1)Nc1ccc(-c2nc3ccccc3[nH]2)cc1 | 1140 |
| COc1cc2c(cc1NS(=O)(=O)c1ccc(OCc3ccc(Br)cc3)cc1)CCN(C1CCC1)CC2 | 840 |
| c1ccc(Oc2ccc(Nc3ccnc(Nc4ccc(OCCN5CCCCC5)cc4)n3)cc2)cc1 | 600 |
| COc1cc(OC)cc(-c2nc3c(C#N)c(OCCN(C)C)ccc3[nH]2)c1 | 650 |
| CN1CCN(c2ccnc3cc4ccccc4cc23)CC1 | 950 |
| O=S1N=C(NCCCN(Cc2cccs2)c2ccccn2)C(NCc2ccccc2)=N1 (centres undefined) | 310 |
| COc1ccc2nc(C)cc(NN=Cc3ccc([N+](=O)[O-])o3)c2c1 | 700 |
| C=CCn1c(C)cc(C(=O)COc2ccc(S(=O)(=O)N3CCOCC3)cc2[N+](=O)[O-])c1C | 1110 |
| COc1cc(C)nc2ccc(NC(=O)Nc3cccc4ccccc34)cc12 | 880 |
| O=C1C(c2ccccc2)=C(Nc2cccc([N+](=O)[O-])c2)c2ccccc21 | 890 |

| Structure (SMILES) | IC50 [nM] |
| --- | --- |
| Cc1cccc(C(=O)Nc2ccnc(N3CCCN(Cc4cccc(O)c4)CC3)c2)c1 | 1210 |
| O=C(NC1CCC(CN2CCC(c3c[nH]c4ccccc34)CC2)CC1)c1cnn(-c2ccccc2)c1-c1ccccc1Cl (centres undefined) | 180 |
| Nc1nccc(-c2ccc3c(/C=C/c4ccccc4)cnc(N)c3c2)n1 | 620 |
| O=C(C1CCN(c2nnnn2-c2ccccc2)CC1)N1CCc2ccccc2C1 | 710 |
| CS(=O)(=O)N(c1ccccc1)c1cc(C(=O)N[C@@H](Cc2ccccc2)[C@H](O)CNC2CC2)cc(N2CCCC2=O)c1 | 300 |
| COc1ccc(Br)cc1/C=C/C(=O)Nc1ccc(C2CCN(C)CC2)cc1 | 500 |
| Cc1nc2nc(N)nc(N)c2c(C)c1Cc1cccc(C(N)=O)c1 | 1080 |
| c1cc(CNCCc2ccncc2)cc(-c2ccc(-c3nc4ccccc4[nH]3)s2)c1 | 340 |
| COc1ccc(CCNc2nc(SCc3ccccc3Cl)nc3ccccc23)cc1OC | 940 |
| O=C(Cc1ccc(-c2ccccc2)cc1)N[C@H]1CCN(Cc2ccc(OCCCN3CCCCC3)cc2)C1 | 770 |
| CCOc1cc(C(=O)N[C@@H](Cc2ccccc2)[C@H](O)CNCc2cc(OC)cc(OC)c2)cc(N2CCCCS2(=O)=O)c1 | 520 |
| NC(N)=NN=Cc1c2ccc(Cl)cc2c(Cl)c2ccc(Cl)cc12 | 960 |
| COc1cc2c(cc1OC)C(c1ccc(Br)cc1)CN(C)CC2 (centres undefined) | 940 |
| COc1ccc(CCN(C)CCOc2ccc(NC(=O)c3cccc4c(=O)c5cc(SC)ccc5[nH]c34)cc2)cc1OC | 740 |
| CCc1nc(N)nc(N)c1-c1ccc(C(C)C)cc1 | 830 |
| O=C(Cn1c(CCc2cccc(F)c2F)nc(=O)c2ccccc21)N(Cc1ccc(-c2ccc(C(F)(F)F)cc2)cc1)C1CCN(C2CCOCC2)CC1 | 740 |
| CNC(=O)c1ccccc1Nc1nc(Nc2ccc(CCN3CCN(C)CC3)cc2)ncc1Cl | 650 |
| COc1ccc2nc3cc(Cl)ccc3c(N)c2c1 | 170 |
| CC(C)NCc1ccc(-c2ccc(-c3nc4ccc(C(F)(F)F)cc4[nH]3)s2)cc1 | 180 |
| Cc1cc(OCCCN2CCC(NS(=O)(=O)c3cccc(Br)c3)C2)c2ccccc2n1 (centres undefined) | 1210 |
| Oc1ccc(CN2CC[C@@H](N3CCN(CCc4ccccc4)CC3)[C@H](O)C2)cc1Cl | 870 |
| N[C@@H](Cc1cc(I)c(Oc2ccc(O)c(C(=O)O)c2)c(I)c1)C(=O)O | 990 |
| COc1c(Br)cc(Br)cc1-c1ccc(CN2C3CCCC2CCC3)[nH]1 | 1110 |
| CCN1CC=C(c2c[nH]c3ccccc23)CC1 | 1030 |
| COc1nc2c(CCN3CC[C@@H](NCc4cc(C#N)c5c(c4)CCO5)[C@@H](O)C3)ccnc2cc1F | 1030 |

| Structure (SMILES) | IC50 [nM] |
| --- | --- |
| Cc1cccn2c(=O)c3cc(C(=O)NCCN4CCOCC4)c(=N)n(CCc4ccccc4)c3nc12 | 470 |
| COc1ccc2nccc([C@@H](O)CN3CCC(NCc4ccc(OC)c(NC=O)c4)CC3)c2c1 | 750 |
| Cc1cc(N2CCC(NS(=O)(=O)c3ccc(F)cc3)CC2)nc(Nc2cccc(C#N)c2)n1 | 650 |
| N[C@@H](Cc1ccc(O)cc1)C(=O)NC(c1ccccc1)c1c(O)ccc2ccccc12 (some centres undefined) | 690 |
| Fc1ccc(N(c2nc(-c3cc(F)cc(C(F)(F)F)c3)cs2)C2CCNCC2)cc1 | 960 |
| COc1ccc2c(CCNc3nc(SC)ncc3C(=O)NCCc3ccc(F)cc3)c[nH]c2c1 | 760 |
| COc1ccc(NC(=O)CSc2nc(-c3ccccc3Cl)ns2)cc1OC | 760 |
| O=C(Nc1ccc(F)c(Cl)c1)c1cc([N+](=O)[O-])cc2cn[nH]c12 | 320 |
| COC[C@H]1CCCN1Cc1ccc(-c2ccc(-c3nc4ccccc4[nH]3)s2)cc1 | 1000 |
| CCN(CCCNc1nc(=S)[nH]c2cc(OC)c(OC)cc12)c1ccccc1 | 720 |
| O=C(Nc1ccccc1)Nc1cccc(-c2nn3c(OCC4CCCCN4)cccc3c2-c2ccncc2)c1 (centres undefined) | 860 |
| CNC(=O)c1cnc(Nc2ccc(N3CCOCC3)cc2)nc1Nc1cccc(OC)c1 | 760 |
| CCC1(CC)CN(c2ccccc2)c2ccc(O)cc2S(=O)(=O)C1CC(C)C (centres undefined) | 400 |
| COc1ccc(N2CCN(CCCCNC(=O)c3ccc(NC(=O)c4ccc(Cl)cc4)cc3)CC2)c(OC)c1 | 950 |
| COc1ccc(CCNCCCCCCNCCc2cccc([N+](=O)[O-])c2)cc1OC | 1000 |
| CC[C@H]1CN2CC[C@H]1C[C@H]2[C@H](O)c1cc(N2CCCC(C(=O)N(CC)CC)C2)nc2ccc(OC)cc12 (some centres undefined) | 70 |
| O=C(/C=C/c1ccc(Cl)c(Cl)c1)NCCCCCN1CCCC(CNS(=O)(=O)c2ccc(F)cc2)C1 (centres undefined) | 1160 |
| Cc1cc(C(=O)OCC(N)=O)c(C)n1-c1ccc(F)cc1 | 330 |
| NCC1CCCN1Cc1ccc(-c2ccc(-c3nc4ccc(C(F)(F)F)cc4[nH]3)cc2)cc1 (centres undefined) | 960 |
| Cc1cc2nc(-c3ccc(C(=O)NC4CCN(Cc5ccccc5)CC4)s3)[nH]c2cc1C | 770 |
| COc1ccc2ncc(F)c([C@H](O)CN3CCC(NCc4ccc5c(c4)NC(=O)CO5)CC3)c2c1 | 170 |
| CCC(C)CN1CCC(N(C)c2cc(NC(=O)c3ccc(F)cc3)ccn2)CC1 (centres undefined) | 980 |
| Cc1cc(=O)c(-c2ccc(Oc3ccc(F)cc3)cc2)c(C)[nH]1 | 970 |
| O=C(Nc1ccc2c(c1)CCN(C1CCC1)CC2)c1ccc(-n2ccnc2)cn1 | 370 |
